ChEMBL document CHEMBL1201862, “PubChem BioAssay data set” (2004)
The source made the active and inactive calls.

Columns and labels:
[1] = biological target: Adenosylmethionine-8-amino-7-oxononanoate aminotransferase (Mycobacterium tuberculosis, UniProt P9WQ81); assay: Mycobacterium tuberculosis BioA enzyme inhibitor Measured in Biochemical System Using Plate Reader - 2163-02_Inhibitor_Dose_CherryPick_Activity.; format: functional, Mycobacterium tuberculosis UT205
[2] = biological target: T1, High affinity choline transporter 1 (Homo sapiens, UniProt Q9GZV3); assay: CHT inhibitors, dose response, cell-based, 10-point CRC, membrane potential dye (AID 588401); format: functional;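 further: membrane potential dye fluorescence of choline-evoked depolarization via CHT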
T1 sequence (Q9GZV3 whole entry): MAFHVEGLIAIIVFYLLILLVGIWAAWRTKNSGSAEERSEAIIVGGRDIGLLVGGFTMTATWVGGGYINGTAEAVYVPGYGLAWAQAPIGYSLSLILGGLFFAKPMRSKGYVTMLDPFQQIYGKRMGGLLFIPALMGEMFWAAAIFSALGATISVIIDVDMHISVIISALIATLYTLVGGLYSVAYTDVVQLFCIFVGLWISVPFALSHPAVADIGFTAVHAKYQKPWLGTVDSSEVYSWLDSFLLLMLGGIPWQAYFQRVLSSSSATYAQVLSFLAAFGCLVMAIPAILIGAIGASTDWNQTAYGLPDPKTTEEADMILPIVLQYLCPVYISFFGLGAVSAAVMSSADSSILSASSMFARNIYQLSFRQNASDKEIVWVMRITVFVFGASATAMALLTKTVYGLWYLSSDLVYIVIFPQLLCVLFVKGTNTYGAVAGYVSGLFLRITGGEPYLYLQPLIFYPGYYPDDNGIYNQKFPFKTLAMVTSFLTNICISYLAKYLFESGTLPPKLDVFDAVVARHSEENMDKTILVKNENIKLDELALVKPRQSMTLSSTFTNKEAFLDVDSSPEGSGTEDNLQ

[3] = biological target: T1, High affinity choline transporter 1; assay: CHT inhibitors, dose response, cell-based, 5-point CRC, membrane potential dye (AID 504840); format: functional
[4] = biological target: T2, Orexin receptor type 2 (Homo sapiens, UniProt O43614); assay: Counterscreen assay for antagonists of the orexin 1 receptor (OX1R; HCRTR1): Fluorescence-based cell-based dose response assay for antagonists of the orexin 2 receptor (OX2R; HCRTR2), run by assay provider.; format: functional
T2 sequence (O43614 whole entry): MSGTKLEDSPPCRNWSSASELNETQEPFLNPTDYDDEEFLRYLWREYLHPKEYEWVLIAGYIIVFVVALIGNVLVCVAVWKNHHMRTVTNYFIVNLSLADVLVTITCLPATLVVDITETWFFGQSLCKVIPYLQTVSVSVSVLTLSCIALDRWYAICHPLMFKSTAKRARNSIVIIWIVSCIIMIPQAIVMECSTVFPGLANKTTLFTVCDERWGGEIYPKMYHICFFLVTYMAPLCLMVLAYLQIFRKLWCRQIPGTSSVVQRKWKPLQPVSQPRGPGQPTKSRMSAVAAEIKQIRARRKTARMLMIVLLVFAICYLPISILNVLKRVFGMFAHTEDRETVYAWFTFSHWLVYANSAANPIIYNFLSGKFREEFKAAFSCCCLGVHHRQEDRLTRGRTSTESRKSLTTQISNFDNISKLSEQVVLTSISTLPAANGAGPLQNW

[5] = system: CHO-K1; assay: (§1) Counterscreen for antagonists of the orexin 1 receptor (OX1R; HCRTR1): Homogeneous time resolved fluorescence (HTRF)-based cell-based dose response assay to identify antagonists of the parental CHO-K1 cell line. [Related pubchem assays (depositor defined):AID434989, AID435008, AID463079, AID485270, AID492963, AID492964, AID492965, AID493232, AID504699, AID504701]; format: functional; conditions: Cricetulus griseus
[6] = as §1, with “Fluorescence-based” for “Homogeneous time resolved fluorescence (HTRF)-based”, “cell-based high throughput” for “cell-based”, “CHO” for “CHO-K1”; format: functional
[7] = HEp-2 cell cytotoxicity, dose response, cytotoxicity control for RSV inhibitor project, HTS (AID 2410); format: functional; conditions: human respiratory syncytial virus
[8] = biological target: T3, Orexin/Hypocretin receptor type 1 (Homo sapiens, UniProt O43613); assay: (§2) Fluorescence-based cell-based high throughput dose response assay for antagonists of the orexin 1 receptor (OX1R; HCRTR1). [Related pubchem assays (depositor defined):AID434989, AID435008, AID463079, AID485270, AID492963, AID492964, AID492965, AID493232, AID504717, AID504718]; format: functional
T3 sequence (O43613 whole entry): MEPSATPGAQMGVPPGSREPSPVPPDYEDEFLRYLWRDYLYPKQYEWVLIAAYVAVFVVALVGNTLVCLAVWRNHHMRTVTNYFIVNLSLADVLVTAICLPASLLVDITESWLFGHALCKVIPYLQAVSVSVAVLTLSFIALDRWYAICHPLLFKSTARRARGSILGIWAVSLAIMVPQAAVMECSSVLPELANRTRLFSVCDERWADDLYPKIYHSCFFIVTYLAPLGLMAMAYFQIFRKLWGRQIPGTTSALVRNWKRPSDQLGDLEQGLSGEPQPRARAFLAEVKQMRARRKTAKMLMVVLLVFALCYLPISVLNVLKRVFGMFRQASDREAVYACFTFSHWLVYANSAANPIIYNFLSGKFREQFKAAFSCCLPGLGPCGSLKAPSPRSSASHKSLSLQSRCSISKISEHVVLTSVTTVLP

[9] = biological target: T3, Orexin/Hypocretin receptor type 1; assay: as §2, with “Homogeneous Time Resolved Fluorescence (HTRF)-based” for “Fluorescence-based”; format: functional
[10] = biological target: T2, Orexin receptor type 2; assay: Counterscreen assay for antagonists of the orexin 1 receptor (OX1R; HCRTR1): Homogeneous Time Resolved Fluorescence (HTRF)-based cell-based dose response assay for antagonists of the orexin 2 receptor (OX2R; HCRTR2), run by assay provider.; format: functional
[11] = biological target: Potassium voltage-gated channel subfamily KQT member 2 (Rattus norvegicus, UniProt O88943); assay: KCNQ2 potassium channel inhibitors, dose response, cell-based, automated electrophysiology, set II, rat KCNQ2 (AID 588637); format: functional
[12] = system: H9c2; assay: cells; format: functional, cell-based; conditions: Rattus norvegicus, H9c2, Myocardium;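 further: confirmatory concentration-response retest of ultra-high-throughput screening hits for modulation of myocardial damage; cell death induced by hydrogen peroxide oxidative stress; compound pretreatment for 60 min then peroxide exposure for 2 h; potency is for protecting the cells against peroxide damage rather than for killing them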
[13] = Shn3 3'UTR reporter inhibitors, dose response, cell-based, Clone20 osteoblasts, firefly luciferase, cherry-picked (AID 624132); format: functional;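 further: firefly luciferase luminescence from reporter carrying the Shn3 3'UTR in osteoblasts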
[14] = control 3'UTR Renilla luciferase suppression, dose response, counter-screen for Shn3 inhibitor project, cell-based, Clone20-Shn3RL, cherry-picked (AID 624133); format: functional
[15] = HepG2 cell cytotoxicity, dose response, cytotoxicity control for Shn3 inhibitor project, CellTiter-Glo, cherry-picked (AID 624134); format: functional, cell-based
[16] = biological target: Protein Wnt-3a (Mus musculus, UniProt P27467); assay: Wnt3a-driven reporter signaling inhibition, dose response, selectivity assay for Gli-SUFU antagonist project, Wnt-LIGHT cells, luminescence (AID 651570); format: functional; conditions: read-out: IC50_Mean;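 further: Wnt-LIGHT reporter cells stimulated with conditioned medium from Wnt3a-producing cells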
[17] = biological target: T4, Apoptotic protease-activating factor 1 (Homo sapiens, UniProt O14727); assay: SAR analysis of small molecule Activators of Apaf-1 in a Fluorescent assay.; format: functional; conditions: read-out: EC50_Mean;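 further: caspase-3 cleavage of fluorogenic Rh110 DEVD substrate downstream of apoptosome activation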
T4 sequence (O14727 whole entry): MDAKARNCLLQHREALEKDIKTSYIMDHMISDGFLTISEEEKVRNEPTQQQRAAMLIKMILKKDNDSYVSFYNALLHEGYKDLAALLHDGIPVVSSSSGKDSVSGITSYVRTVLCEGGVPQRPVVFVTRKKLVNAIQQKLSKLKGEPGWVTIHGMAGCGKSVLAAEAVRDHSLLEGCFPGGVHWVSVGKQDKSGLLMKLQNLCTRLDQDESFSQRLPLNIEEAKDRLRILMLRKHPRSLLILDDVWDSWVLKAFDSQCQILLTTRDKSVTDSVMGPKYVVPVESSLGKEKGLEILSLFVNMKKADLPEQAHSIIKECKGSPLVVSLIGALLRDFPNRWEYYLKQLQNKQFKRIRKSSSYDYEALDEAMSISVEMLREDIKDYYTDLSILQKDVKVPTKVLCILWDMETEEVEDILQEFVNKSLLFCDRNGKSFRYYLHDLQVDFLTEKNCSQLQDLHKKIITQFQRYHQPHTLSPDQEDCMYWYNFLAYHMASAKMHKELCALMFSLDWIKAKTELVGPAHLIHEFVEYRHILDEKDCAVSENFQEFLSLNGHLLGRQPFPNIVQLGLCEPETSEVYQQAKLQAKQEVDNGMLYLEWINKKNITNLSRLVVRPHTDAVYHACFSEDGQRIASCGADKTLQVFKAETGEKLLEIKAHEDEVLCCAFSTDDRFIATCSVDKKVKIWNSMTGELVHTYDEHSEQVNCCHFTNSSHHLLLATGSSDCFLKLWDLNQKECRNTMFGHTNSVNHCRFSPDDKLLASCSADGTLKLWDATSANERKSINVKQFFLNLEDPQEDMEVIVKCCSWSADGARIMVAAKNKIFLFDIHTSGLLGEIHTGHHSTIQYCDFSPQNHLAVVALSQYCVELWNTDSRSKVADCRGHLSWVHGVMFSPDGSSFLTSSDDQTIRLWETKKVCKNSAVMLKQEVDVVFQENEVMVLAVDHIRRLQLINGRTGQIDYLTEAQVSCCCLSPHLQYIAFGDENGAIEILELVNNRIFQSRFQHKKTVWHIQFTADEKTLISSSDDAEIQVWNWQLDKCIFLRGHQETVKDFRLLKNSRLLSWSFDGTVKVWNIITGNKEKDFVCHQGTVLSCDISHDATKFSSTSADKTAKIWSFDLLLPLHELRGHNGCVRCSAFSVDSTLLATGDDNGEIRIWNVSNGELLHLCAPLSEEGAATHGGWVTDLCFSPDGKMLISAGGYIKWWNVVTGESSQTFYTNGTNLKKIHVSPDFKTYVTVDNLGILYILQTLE

[18] = cells
[19] = system: Streptococcus sp. 'group A'; assay: growth inhibition of control SK(-) GAS strain, dose response, counter-screen for streptokinase expression inhibitor project, luminescence, kanamycin, BacTiterGlo, confirmation (AID 1900); format: functional, organism-based
[20] = biological target: FAD-linked sulfhydryl oxidase ALR (Homo sapiens, UniProt P55789); assay: inhibitors of human ALR sulfhydryl oxidase, dose response, biochemical, H2O2 detection, luminescence, cherry-pick (AID 493248)
[21] = system: Streptococcus; assay: Group A Streptococcus viability loss, dose response, counter-screen for streptokinase expression inhibitor project, luminescence, BacTiterGlo (AID 1915); format: functional, organism-based;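 further: potency for reduction of bacterial viability or growth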
[22] = biological target: T5, Streptokinase A (Streptococcus pyogenes serotype M1, UniProt P10520); assay: S. pyogenes streptokinase expression inhibitors, potency, dose response, plasminogen activation absorbance, OD405 (AID 1914); format: functional, Streptococcus pyogenes M1 GAS;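 further: secreted streptokinase activity via plasminogen activation per viability signal from cell pellet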
T5 sequence (P10520 whole entry): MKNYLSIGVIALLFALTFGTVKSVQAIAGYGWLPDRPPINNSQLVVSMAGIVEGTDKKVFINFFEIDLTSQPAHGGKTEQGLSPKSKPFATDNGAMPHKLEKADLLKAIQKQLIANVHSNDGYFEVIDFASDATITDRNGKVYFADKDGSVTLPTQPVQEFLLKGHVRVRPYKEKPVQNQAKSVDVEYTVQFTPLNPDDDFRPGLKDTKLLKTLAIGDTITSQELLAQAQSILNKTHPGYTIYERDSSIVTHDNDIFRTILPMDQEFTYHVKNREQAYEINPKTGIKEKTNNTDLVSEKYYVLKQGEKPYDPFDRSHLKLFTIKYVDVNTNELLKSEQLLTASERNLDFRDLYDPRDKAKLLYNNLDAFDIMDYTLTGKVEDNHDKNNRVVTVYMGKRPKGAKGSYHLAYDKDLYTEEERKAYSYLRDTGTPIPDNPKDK

Chain of FAD-linked sulfhydryl oxidase ALR (P55789 whole entry): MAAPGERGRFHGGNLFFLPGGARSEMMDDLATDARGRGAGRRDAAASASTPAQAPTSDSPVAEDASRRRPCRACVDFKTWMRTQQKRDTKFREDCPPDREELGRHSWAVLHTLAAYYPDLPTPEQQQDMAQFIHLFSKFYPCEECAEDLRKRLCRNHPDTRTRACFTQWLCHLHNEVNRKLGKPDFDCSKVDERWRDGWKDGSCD
Chain of Protein Wnt-3a (P27467 whole entry): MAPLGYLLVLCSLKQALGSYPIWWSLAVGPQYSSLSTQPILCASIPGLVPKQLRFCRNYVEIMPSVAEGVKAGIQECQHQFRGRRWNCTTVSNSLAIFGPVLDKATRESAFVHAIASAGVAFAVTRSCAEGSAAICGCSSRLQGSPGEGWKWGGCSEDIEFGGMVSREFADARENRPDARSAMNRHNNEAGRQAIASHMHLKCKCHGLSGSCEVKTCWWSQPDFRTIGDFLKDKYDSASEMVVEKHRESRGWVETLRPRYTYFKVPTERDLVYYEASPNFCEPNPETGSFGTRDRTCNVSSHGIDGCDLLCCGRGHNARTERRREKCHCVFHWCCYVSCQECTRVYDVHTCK
Chain of Potassium voltage-gated channel subfamily KQT member 2 (O88943 whole entry): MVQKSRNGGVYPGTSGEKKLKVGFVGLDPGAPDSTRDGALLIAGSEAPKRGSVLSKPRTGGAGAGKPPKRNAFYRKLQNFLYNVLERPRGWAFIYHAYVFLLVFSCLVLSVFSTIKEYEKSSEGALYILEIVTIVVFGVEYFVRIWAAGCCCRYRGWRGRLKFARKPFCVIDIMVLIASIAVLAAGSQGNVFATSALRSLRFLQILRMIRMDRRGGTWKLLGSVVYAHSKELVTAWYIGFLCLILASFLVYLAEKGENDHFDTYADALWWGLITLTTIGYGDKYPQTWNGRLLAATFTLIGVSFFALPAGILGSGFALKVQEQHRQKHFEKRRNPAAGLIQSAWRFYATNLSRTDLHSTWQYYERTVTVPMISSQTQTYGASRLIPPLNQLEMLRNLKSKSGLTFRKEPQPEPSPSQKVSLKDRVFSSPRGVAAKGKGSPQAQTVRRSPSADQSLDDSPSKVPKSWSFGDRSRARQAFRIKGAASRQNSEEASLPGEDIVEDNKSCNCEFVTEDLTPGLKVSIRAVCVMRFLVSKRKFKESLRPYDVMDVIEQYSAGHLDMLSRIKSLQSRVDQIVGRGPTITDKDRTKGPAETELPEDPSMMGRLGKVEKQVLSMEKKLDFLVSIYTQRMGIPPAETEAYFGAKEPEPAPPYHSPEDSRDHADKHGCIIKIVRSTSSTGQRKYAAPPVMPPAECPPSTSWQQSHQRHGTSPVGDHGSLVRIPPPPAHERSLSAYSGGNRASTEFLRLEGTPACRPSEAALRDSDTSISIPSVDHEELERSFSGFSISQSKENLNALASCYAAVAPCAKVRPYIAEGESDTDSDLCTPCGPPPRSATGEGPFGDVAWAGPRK
Chain of Adenosylmethionine-8-amino-7-oxononanoate aminotransferase (P9WQ81 whole entry): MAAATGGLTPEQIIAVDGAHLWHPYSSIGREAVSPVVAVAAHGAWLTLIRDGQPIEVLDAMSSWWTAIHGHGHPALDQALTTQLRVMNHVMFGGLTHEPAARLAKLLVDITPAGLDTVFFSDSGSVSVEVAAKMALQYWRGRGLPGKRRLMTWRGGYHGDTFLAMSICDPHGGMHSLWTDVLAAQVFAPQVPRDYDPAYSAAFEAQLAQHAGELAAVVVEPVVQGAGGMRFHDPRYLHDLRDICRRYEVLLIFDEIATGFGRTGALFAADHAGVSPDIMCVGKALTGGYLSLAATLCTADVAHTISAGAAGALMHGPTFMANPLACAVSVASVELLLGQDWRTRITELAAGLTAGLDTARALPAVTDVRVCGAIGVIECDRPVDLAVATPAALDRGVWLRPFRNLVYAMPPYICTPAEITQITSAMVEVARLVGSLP

## Cc1c2cnn(CC(=O)NCc3ccccn3)c(=O)c2c(C)n1Cc1ccc(Cl)cc1
[1]
  AC50: 2.49 µM (active)

## Cc1ccc(C(C)N=C(S)NC2CCCCC2)cc1C (stereo unspecified)
[2]
  IC50: 3.36 µM (active)
[3]
  IC50: 8 µM (active)

## Cc1nn(-c2ccccc2)c2nc(N)c(C#N)c(-c3ccc(O)c(O)c3)c12
[4]
  IC50: > 88.8 µM (inactive)
[5]
  IC50: > 66.2 µM (inactive)
[6]
  IC50: 36.2 µM (inactive)
[7]
  CC50: 17.4 µM (active)
[8]
  IC50: > 5.53 µM (active)
[9]
  IC50: 9.34 µM (active)
[10]
  IC50: > 50 µM (inactive)

## CCC(CC)C(=O)N(CCc1ccc(OC)cc1)Cc1nc(O)c2ccccc2n1
[11]
  IC50: 12.4 µM (active)
[12]
  IC50: > 79 µM (inactive)

## C[C@@H]1COC(=O)[C@@H](NC(=O)OCC2c3ccccc3-c3ccccc32)C/C=C\C[C@@H](CC(=O)N(CCO)Cc2ccccc2)C(=O)N1
[13]
  AC50: 1.89 µM (active)
[14]
  AC50: 3.59 µM (active)
[15]
  AC50: > 70 µM (inactive)
[16]
  IC50: 3.34 µM (active)

## CC(=O)c1ccc(N2C(=O)CC3(CC(c4ccc(Cl)cc4)=NO3)C2=O)cc1 (stereo unspecified)
[17]
  EC50: > 100 µM (inactive)

## O=C(NC(Cc1c[nH]c2ccccc12)C(=O)N/N=C/c1ccc(Cl)cc1)c1cccs1 (stereo unspecified)
[4]
  IC50: 24 µM (inactive)
[5]
  IC50: > 66.2 µM (inactive)
[18]
  IC50: 10.9 µM (active)
[6]
  IC50: > 49.8 µM (inactive)
[7]
  CC50: 14.7 µM (active)
[8]
  IC50: 8.68 µM (active)
[9]
  IC50: 3.28 µM (active)
[10]
  IC50: > 50 µM (inactive)

## N#C/C(=N\Nc1ccc(Cl)cc1)C(N)=S
[2]
  IC50: 2.04 µM (active)
[19]
  EC50: > 150 µM (not active)
[20]
  AC50: 7.86 µM (active)
[21]
  EC50: > 150 µM (not active)
[22]
  EC50: > 150 µM (not active)
[3]
  IC50: 5.01 µM (active)
